According to ChEMBL document CHEMBL4507324 (2021):

Tests used:
Settings in all cases: Compound concentration 100.0 nM
[1] = system: Tyrosine-protein kinase ABL1 (Homo sapiens), P00519 [F317I]
[2] = system: Tyrosine-protein kinase ABL1 (Homo sapiens), P00519 [F317L]
[3] = system: Tyrosine-protein kinase ABL1 (Homo sapiens), P00519 [Q252H]
[4] = system: Tyrosine-protein kinase ABL1 (Homo sapiens), P00519 [Y253F]
[5] = biological target: Activin receptor type-2B (Homo sapiens) (UniProt Q13705)
[6] = biological target: RAC-gamma serine/threonine-protein kinase (Homo sapiens) (UniProt Q9Y243)
[7] = biological target: ALK tyrosine kinase receptor (Homo sapiens) (UniProt Q9UM73)
[8] = biological target: Ankyrin repeat and protein kinase domain-containing protein 1 (Homo sapiens) (UniProt Q8NFD2)
[9] = biological target: Serine/threonine-protein kinase B-raf (Homo sapiens, UniProt P15056)
[10] = biological target: Calcium/calmodulin-dependent protein kinase type 1 (Homo sapiens) (UniProt Q14012)
[11] = biological target: Calcium/calmodulin-dependent protein kinase type 1B (Homo sapiens) (UniProt Q6P2M8)
[12] = biological target: Calcium/calmodulin-dependent protein kinase type 1D (Homo sapiens) (UniProt Q8IU85)
[13] = biological target: Cyclin-dependent kinase 2 (Homo sapiens) (UniProt P24941)
[14] = biological target: Cyclin-dependent kinase 9 (Homo sapiens) (UniProt P50750)
[15] = biological target: Serine/threonine-protein kinase DCLK1 (Homo sapiens) (UniProt O15075)
[16] = biological target: Serine/threonine-protein kinase DCLK3 (Homo sapiens) (UniProt Q9C098)
[17] = biological target: Ephrin type-B receptor 6 (Homo sapiens) (UniProt O15197)
[18] = biological target: Mitogen-activated protein kinase 7 (Homo sapiens) (UniProt Q13164)
[19] = system: Receptor-type tyrosine-protein kinase FLT3 (Homo sapiens), P36888 [D835V]
[20] = system: Receptor-type tyrosine-protein kinase FLT3 (Homo sapiens), P36888 [UNDEFINED MUTATION]
[21] = biological target: Mast/stem cell growth factor receptor Kit (Homo sapiens) (UniProt P10721)
[22] = system: Mast/stem cell growth factor receptor Kit (Homo sapiens), P10721 [V559D,T670I]
[23] = biological target: Leukocyte tyrosine kinase receptor (Homo sapiens) (UniProt P29376)
[24] = biological target: MAP/microtubule affinity-regulating kinase 3 (Homo sapiens) (UniProt P27448)
[25] = biological target: Microtubule-associated serine/threonine-protein kinase 1 (Homo sapiens) (UniProt Q9Y2H9)
[26] = biological target: Dual specificity mitogen-activated protein kinase kinase 1 (Homo sapiens) (UniProt Q02750)
[27] = biological target: MAP kinase-interacting serine/threonine-protein kinase 2 (Homo sapiens) (UniProt Q9HBH9)
[28] = biological target: Phosphatidylinositol 5-phosphate 4-kinase type-2 beta (Homo sapiens) (UniProt P78356)
[29] = biological target: Serine/threonine-protein kinase PLK4 (Homo sapiens) (UniProt O00444)
[30] = biological target: Protein kinase C theta type (Homo sapiens) (UniProt Q04759)
[31] = biological target: Serine/threonine-protein kinase D3 (Homo sapiens) (UniProt O94806)
[32] = biological target: Interferon-induced, double-stranded RNA-activated protein kinase (Homo sapiens) (UniProt P19525)
[33] = biological target: Protein-tyrosine kinase 2-beta (Homo sapiens) (UniProt Q14289)
[34] = biological target: RAF proto-oncogene serine/threonine-protein kinase (Homo sapiens) (UniProt P04049)
[35] = biological target: Receptor-interacting serine/threonine-protein kinase 2 (Homo sapiens) (UniProt O43353)
[36] = biological target: Ribosomal protein S6 kinase alpha-3 (Homo sapiens) (UniProt P51812)
[37] = biological target: Ribosomal protein S6 kinase alpha-2 (Homo sapiens) (UniProt Q15349)
[38] = biological target: SRSF protein kinase 1 (Homo sapiens) (UniProt Q96SB4)
[39] = biological target: STE20/SPS1-related proline-alanine-rich protein kinase (Homo sapiens) (UniProt Q9UEW8)
[40] = biological target: Serine/threonine-protein kinase TAO2 (Homo sapiens) (UniProt Q9UL54)
[41] = biological target: Serine/threonine-protein kinase TAO3 (Homo sapiens) (UniProt Q9H2K8)
[42] = biological target: Non-receptor tyrosine-protein kinase TNK1 (Homo sapiens) (UniProt Q13470)
[43] = biological target: Transient receptor potential cation channel subfamily M member 6 (Homo sapiens) (UniProt Q9BX84)
[44] = biological target: Tyrosine-protein kinase ZAP-70 (Homo sapiens) (UniProt P43403)

Sequence of SRSF protein kinase 1 (Homo sapiens) (Q96SB4 whole entry): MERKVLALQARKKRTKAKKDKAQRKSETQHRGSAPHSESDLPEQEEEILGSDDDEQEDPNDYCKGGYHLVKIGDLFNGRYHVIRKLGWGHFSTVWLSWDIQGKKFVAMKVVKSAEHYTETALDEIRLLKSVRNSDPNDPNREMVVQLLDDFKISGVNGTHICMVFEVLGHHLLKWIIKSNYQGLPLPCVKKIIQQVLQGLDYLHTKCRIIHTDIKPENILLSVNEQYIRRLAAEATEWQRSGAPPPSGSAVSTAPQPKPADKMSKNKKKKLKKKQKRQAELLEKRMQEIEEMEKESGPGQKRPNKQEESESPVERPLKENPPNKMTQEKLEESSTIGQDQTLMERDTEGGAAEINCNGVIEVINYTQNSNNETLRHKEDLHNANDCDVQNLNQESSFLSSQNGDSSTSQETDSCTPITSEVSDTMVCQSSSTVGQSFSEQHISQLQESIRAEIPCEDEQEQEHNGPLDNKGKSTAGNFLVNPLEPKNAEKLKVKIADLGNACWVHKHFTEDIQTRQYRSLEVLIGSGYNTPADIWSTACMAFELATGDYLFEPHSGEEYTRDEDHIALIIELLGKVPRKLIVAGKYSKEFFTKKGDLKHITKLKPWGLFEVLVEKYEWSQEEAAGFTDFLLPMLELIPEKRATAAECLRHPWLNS
Sequence of ALK tyrosine kinase receptor (Homo sapiens) (Q9UM73 19-1620 limits assumed): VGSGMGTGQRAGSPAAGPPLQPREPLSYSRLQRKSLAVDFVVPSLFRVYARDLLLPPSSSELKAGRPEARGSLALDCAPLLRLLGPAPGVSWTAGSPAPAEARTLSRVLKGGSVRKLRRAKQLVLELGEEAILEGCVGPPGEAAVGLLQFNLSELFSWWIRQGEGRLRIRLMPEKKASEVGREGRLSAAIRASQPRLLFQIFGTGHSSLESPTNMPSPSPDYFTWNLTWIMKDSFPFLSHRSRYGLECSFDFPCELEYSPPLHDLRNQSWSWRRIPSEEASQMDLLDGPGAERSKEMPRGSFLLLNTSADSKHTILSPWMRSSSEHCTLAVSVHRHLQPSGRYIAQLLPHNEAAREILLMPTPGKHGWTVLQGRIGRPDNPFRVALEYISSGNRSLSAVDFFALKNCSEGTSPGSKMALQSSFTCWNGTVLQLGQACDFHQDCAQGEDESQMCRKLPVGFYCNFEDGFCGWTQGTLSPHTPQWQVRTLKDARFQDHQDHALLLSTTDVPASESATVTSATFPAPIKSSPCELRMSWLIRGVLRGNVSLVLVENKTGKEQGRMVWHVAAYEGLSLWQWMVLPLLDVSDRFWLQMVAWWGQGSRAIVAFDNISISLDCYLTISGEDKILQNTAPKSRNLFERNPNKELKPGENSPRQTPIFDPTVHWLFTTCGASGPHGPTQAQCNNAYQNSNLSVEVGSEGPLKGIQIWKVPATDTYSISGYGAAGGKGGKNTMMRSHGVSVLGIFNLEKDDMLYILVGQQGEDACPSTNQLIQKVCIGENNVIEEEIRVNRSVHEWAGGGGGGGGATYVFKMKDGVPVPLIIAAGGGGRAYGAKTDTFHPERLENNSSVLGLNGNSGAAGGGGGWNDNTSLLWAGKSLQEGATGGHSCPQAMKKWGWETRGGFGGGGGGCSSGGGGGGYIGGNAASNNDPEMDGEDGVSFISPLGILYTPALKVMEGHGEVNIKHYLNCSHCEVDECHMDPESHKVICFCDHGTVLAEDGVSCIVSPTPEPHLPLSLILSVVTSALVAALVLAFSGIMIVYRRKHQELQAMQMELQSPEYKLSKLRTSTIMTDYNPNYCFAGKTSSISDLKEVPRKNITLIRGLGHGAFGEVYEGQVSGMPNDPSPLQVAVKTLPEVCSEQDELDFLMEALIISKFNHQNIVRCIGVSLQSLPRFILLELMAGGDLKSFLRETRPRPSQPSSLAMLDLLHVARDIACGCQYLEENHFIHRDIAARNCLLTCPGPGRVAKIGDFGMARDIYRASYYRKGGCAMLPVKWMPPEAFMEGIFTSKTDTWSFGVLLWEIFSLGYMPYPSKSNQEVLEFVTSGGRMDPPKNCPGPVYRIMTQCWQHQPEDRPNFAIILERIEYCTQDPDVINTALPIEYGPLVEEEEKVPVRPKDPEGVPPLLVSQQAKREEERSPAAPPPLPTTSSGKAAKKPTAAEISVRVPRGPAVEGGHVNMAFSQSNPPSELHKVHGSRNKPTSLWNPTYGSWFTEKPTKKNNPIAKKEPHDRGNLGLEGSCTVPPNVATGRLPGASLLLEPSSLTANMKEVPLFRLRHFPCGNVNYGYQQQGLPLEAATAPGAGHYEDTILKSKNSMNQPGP
Sequence of Protein-tyrosine kinase 2-beta (Homo sapiens) (Q14289 whole entry, looked up): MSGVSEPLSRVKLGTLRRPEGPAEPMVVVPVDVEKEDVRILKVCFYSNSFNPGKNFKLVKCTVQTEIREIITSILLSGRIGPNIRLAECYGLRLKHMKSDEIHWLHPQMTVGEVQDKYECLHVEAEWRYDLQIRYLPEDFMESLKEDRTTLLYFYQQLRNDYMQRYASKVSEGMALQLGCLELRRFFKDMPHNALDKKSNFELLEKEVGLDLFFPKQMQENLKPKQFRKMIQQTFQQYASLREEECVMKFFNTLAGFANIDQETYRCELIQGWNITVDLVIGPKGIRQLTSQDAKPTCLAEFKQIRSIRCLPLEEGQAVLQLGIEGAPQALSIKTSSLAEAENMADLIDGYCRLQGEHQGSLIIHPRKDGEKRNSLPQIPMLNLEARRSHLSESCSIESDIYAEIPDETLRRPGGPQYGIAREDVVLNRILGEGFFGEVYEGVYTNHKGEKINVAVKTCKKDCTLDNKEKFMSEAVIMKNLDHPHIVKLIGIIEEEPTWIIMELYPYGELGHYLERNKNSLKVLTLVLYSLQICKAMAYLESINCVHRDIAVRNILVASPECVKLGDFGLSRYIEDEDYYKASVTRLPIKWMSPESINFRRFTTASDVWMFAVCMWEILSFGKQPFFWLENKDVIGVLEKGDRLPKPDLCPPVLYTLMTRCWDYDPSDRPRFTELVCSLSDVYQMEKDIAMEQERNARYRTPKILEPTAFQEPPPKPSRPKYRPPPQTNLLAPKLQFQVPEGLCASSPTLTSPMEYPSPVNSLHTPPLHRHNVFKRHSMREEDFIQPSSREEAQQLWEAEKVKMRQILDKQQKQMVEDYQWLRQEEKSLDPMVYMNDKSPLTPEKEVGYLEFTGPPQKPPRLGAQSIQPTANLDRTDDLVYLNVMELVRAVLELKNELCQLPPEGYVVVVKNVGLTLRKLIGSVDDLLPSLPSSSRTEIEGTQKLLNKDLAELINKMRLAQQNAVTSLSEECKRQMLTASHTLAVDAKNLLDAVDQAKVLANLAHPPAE
Sequence of Ribosomal protein S6 kinase alpha-3 (Homo sapiens) (P51812 whole entry): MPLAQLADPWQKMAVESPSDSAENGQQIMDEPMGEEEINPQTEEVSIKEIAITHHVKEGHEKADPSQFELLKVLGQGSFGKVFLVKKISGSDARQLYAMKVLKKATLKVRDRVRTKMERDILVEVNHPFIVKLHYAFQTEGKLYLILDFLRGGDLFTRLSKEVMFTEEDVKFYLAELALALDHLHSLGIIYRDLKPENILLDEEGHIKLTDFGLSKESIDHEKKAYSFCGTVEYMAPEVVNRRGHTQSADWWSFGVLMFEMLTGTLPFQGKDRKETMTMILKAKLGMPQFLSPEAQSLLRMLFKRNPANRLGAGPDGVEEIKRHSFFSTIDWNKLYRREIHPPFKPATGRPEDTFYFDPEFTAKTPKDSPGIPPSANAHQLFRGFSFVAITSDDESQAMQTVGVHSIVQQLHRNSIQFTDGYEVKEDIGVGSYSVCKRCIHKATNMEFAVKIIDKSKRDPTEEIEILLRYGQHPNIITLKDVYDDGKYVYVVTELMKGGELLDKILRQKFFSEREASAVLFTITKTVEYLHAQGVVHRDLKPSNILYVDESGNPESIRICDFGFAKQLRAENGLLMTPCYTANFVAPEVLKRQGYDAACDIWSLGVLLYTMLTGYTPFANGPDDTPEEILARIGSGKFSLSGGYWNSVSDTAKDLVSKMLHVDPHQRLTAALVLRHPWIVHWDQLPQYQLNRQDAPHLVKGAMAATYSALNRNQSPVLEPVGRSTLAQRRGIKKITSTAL
Sequence of Calcium/calmodulin-dependent protein kinase type 1D (Homo sapiens) (Q8IU85 whole entry, looked up): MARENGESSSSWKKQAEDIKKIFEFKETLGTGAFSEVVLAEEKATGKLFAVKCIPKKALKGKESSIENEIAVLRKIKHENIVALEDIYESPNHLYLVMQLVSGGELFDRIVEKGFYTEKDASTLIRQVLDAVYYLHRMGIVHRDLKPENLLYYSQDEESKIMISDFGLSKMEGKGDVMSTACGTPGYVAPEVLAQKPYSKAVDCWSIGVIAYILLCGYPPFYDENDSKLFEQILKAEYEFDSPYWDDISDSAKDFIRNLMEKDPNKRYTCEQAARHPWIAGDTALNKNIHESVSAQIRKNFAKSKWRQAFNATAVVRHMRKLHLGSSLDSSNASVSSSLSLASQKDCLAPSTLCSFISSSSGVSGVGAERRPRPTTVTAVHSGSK
Sequence of Phosphatidylinositol 5-phosphate 4-kinase type-2 beta (Homo sapiens) (P78356 whole entry): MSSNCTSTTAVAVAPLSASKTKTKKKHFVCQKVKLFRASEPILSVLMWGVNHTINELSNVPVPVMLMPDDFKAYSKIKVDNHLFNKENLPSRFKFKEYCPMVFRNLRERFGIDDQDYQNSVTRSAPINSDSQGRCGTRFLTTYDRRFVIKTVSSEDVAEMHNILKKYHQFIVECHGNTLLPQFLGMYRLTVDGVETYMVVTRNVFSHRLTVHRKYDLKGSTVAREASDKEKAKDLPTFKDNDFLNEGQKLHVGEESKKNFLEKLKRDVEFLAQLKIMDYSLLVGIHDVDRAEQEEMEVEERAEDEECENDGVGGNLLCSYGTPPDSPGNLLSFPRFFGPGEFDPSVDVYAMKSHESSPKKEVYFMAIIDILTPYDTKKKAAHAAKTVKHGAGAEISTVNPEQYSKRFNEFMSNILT

## CS(=O)(=O)N1CCCC(NC(=O)[C@H](CCC2CCCCC2)NC(=O)c2ccc(CNc3ncnc4c3nnn4-c3ccccc3)cc2)C1 (stereo partly drawn) [SR-301]
[1]
  residual activity: 95%
[2]
  residual activity: 100%
[3]
  residual activity: 95%
[4]
  residual activity: 84%
[5]
  residual activity: 83%
[6]
  residual activity: 86%
[7]
  residual activity: 100%
[8]
  residual activity: 80%
[9]
  residual activity: 81%
[10]
  residual activity: 96%
[11]
  residual activity: 100%
[12]
  residual activity: 97%
[13]
  residual activity: 100%
[14]
  residual activity: 87%
[15]
  residual activity: 100%
[16]
  residual activity: 87%
[17]
  residual activity: 100%
[18]
  residual activity: 94%
[19]
  residual activity: 89%
[20]
  residual activity: 100%
[21]
  residual activity: 89%
[22]
  residual activity: 100%
[23]
  residual activity: 100%
[24]
  residual activity: 100%
[25]
  residual activity: 100%
[26]
  residual activity: 100%
[27]
  residual activity: 100%
[28]
  residual activity: 100%
[29]
  residual activity: 82%
[30]
  residual activity: 90%
[31]
  residual activity: 100%
[32]
  residual activity: 55%
[33]
  residual activity: 94%
[34]
  residual activity: 70%
[35]
  residual activity: 59%
[36]
  residual activity: 100%
[37]
  residual activity: 100%
[38]
  residual activity: 78%
[39]
  residual activity: 100%
[40]
  residual activity: 93%
[41]
  residual activity: 100%
[42]
  residual activity: 96%
[43]
  residual activity: 96%
[44]
  residual activity: 100%

## CS(=O)(=O)N1CCCC(NC(=O)[C@H](CCC2CCCCC2)NC(=O)c2ccc(CNC(=O)c3cnc4ccccn34)cc2)C1 (stereo partly drawn) [SR-302]
[1]
  residual activity: 85%
[2]
  residual activity: 32%
[3]
  residual activity: 88%
[4]
  residual activity: 76%
[5]
  residual activity: 100%
[6]
  residual activity: 100%
[7]
  residual activity: 100%
[8]
  residual activity: 92%
[9]
  residual activity: 47%
[10]
  residual activity: 100%
[11]
  residual activity: 77%
[12]
  residual activity: 88%
[13]
  residual activity: 88%
[14]
  residual activity: 100%
[15]
  residual activity: 99%
[16]
  residual activity: 97%
[17]
  residual activity: 98%
[18]
  residual activity: 94%
[19]
  residual activity: 61%
[20]
  residual activity: 86%
[21]
  residual activity: 63%
[22]
  residual activity: 77%
[23]
  residual activity: 100%
[24]
  residual activity: 74%
[25]
  residual activity: 94%
[26]
  residual activity: 100%
[27]
  residual activity: 84%
[28]
  residual activity: 100%
[29]
  residual activity: 100%
[30]
  residual activity: 97%
[31]
  residual activity: 90%
[32]
  residual activity: 47%
[33]
  residual activity: 100%
[34]
  residual activity: 61%
[35]
  residual activity: 30%
[36]
  residual activity: 100%
[37]
  residual activity: 80%
[38]
  residual activity: 74%
[39]
  residual activity: 88%
[40]
  residual activity: 91%
[41]
  residual activity: 83%
[42]
  residual activity: 100%
[43]
  residual activity: 100%
[44]
  residual activity: 100%
